# From US10464901B2, “Composition including benzene diamine derivative for preventing or treating degenerative brain diseases” (UNIST(ULSAN NATIONAL INSTITUTE OF SCIENCE AND TECHNOLOGY), priority 2017, dated 2019)
# Assays:
# [1] = test system: Cu(II)-Aβ; assay: Aβ aggregation inhibition, gel electrophoresis and Western blotting with anti-Aβ antibody (6E10); format: biochemical
# Excerpt: It was examined whether the benzene diamine derivatives of the present disclosure have inhibitory effects on Aβ aggregation. Aβ has two isoforms, and therefore, effects on Aβ40 and Aβ42 were examined, respectively. When metals are involved in protein folding, the probability of abnormal folding is high. In this case, the probability of Aβ aggregate formation is further increased.
# In order to perform molecular analysis of Aβ aggregation-inhibitory effects of the benzene diamine derivatives of the present disclosure, gel electrophoresis and Western blotting were performed by using anti-Aβ antibody (6E10). As a control group, compound 1
# In detail, each sample (10 μl) was separated on a 10-20% Tris-tricine gel (Invitrogen, Grand Island, N.Y., USA). After separation, the proteins were transferred onto a nitrocellulose membrane and blocked with bovine serum albumin (BSA, 3% w/v, Sigma-Aldrich, St Louis, Mo., USA) in Tris-buffered saline (TBS) containing 0.1% Tween-20 (TBS-T) at room temperature for 2 hours or at 4° C. overnight. The membrane was incubated in a 2% BSA (w/v in TBS-T) solution, together with anti-Aβ antibody (6E10, 1:2,000, Covance, Princeton, N.J., USA), at room temperature for 4 hours or at 4° C. overnight. The membrane was washed with TBS-T (3×, 10 min), and a secondary mouse antibody (1:5,000 in 2% BSA w/v in TBS-T; Cayman Chemical Company, Ann Arbor, Mich., USA) was added thereto, followed by incubation at room temperature for 1 hour. Thermo Scientific SuperSignal West Pico Chemiluminescent Substrate (Thermo Scientific, Rockford, Ill., USA), Biosesang ECL Plus kit (Biosesang, Gyeonggi-do, Republic of Korea), or homemade ECL kit53 were used for visualization, and ChemiDoc MP Imaging System (Bio-Rad, Hercules, Calif., USA) was used for detection.
# [2] = Antioxidant effect: free organic radical-scavenging activity (ABTS) using cell lysate; format: biochemical; conditions: Table 1 summary of Example 3; symbols not defined
# Description: It was examined whether the benzene diamine derivatives of the present disclosure have an antioxidant effect. It is known that reactive oxygen species induces oxidative stress in neuronal cells to cause neuronal cell death and causes protein misfolding to induce formation of Aβ aggregates. Therefore, compounds having antioxidant effects may be candidates for preventing or treating dementia.
# Free organic radical-scavenging activity of the compound was determined according to a protocol of Cayman Chemical Company (Ann Arbor, Mich., USA) with slight modifications. For antioxidant analysis using a cell lysate, cells were seeded in a 6-well plate, and cultured until they reached 80-90% confluence. A cell lysate was prepared according to a known method, washed with a cold phosphate buffer solution (PBS; pH 7.4, GIBCO), and then harvested. Cell pellet was produced by centrifugation (2,000 g, 4° C., 10 min). This pellet was sonicated (5 sec pulse, 20 sec interval, three times) in 2 ml of cold assay buffer S13 (5 mM potassium phosphate, pH 7.4; 0.9% NaCl; 0.1% glucose) on ice. A cell lysate was centrifuged at 4° C. for 10 minutes at 5,000 g. A supernatant was removed, and left on ice until use. To the cell lysate supernatant (10 μl), the compound, metmyoglobin, ABTS (2,2′-azino-bis-3-ethylbenzothiazoline-6-sulfonic acid), and hydrogen peroxide were sequentially added. The mixture was incubated on a shaker at room temperature for 5 minutes, and absorbance at 750 nm was measured. The compound at a final concentration of 45, 90, 135, 180, 225, or 330 μM and Trolox (6-hydroxy-2,5,7,8-tetramethyl-chroman-2-carboxylic acid, dissolved in EtOH) were used. Antioxidant activity was calculated according to the measured absorbance [% inhibition=100×(A0−A)/A0, A0 represents absorbance of the supernant of the cell lysate]. Each measurement was repeated in triplicate.
# [3] = test system: Aβ aggregates; assay: Brain tissue staining of Aβ aggregates with Thioflavin T; format: in vivo, mouse; conditions: oral 100 μg/kg twice a week for 2 months, confocal, FIG. 9
# Description: Like oligomeric Aβ, Aβ aggregates in the brain tissue may cause neuronal cell death by neuronal cytotoxicity, which may cause dementia. Therefore, anatomical analysis of the brain tissue was performed to examine whether the benzene diamine derivatives of the present disclosure inhibit neuronal cytotoxicity by Aβ aggregates in dementia mouse models.
# In detail, as in Experimental Example 7-1, the dementia mouse models were prepared and their brain tissues were stained. Aβ aggregates in the brain tissue were labeled with Thioflavin T (ThT, Sigma-Aldrich) (green fluorescence), plaques were stained with a fluorescent staining reagent MX04 (blue), and incubated at 4° C. for 12 hours. Thereafter, the tissues were observed under a confocal microscope at 0.5×10.
compound,measurement,setting,value
"Nc1ccc(NCc2ccccn2)cc1 [Compound 2, N^1-(pyridin-2-ylmethyl)benzene-1,4-diamine]",Cu(II)-Aβ (inhibitory effect on Aβ aggregation),"[1]; Table 1 summary of Example 2, symbols not defined",◯
same,Cu(II)-Aβ-inhibitory effect,"[1]; two kinds of Aβ, FIG. 1",very excellent Cu(II)-Aβ-inhibitory effect on two kinds of Aβ
same,Reactive oxygen species (antioxidant effect),[2],◯ (better effect than TEAC)
same,Aβ aggregates (ThT) in brain,[3],Aβ aggregates were hardly observed
